pIC50: −log10 of the molar value.
Tested on: 439559-082-T-J2-PDC spheroids viability
Assay: Anticancer human tumor 439559-082-T-J2-PDC patient-derived colon adenocarcinoma cell line growth inhibition [GQUAD]
Conditions: for pIC50: curve of first compound; for viability, T/C: stronger effect = lower value
Excerpt: DNA G-quadruplex Stabilizer Agents in Combinations in Complex Spheroids
A high-throughput screen of multi-cell type tumor spheroids was designed to identify active combinations of DNA G-quadruplex stabilizer agents and targeted small molecules. Complex spheroids include a stromal component modeled by human endothelial cells (HUVEC) and fibroblasts modeled by human mesenchymal stem cells (MSCs). The concentration ranges selected for each drug and investigational agent were based upon clinically achievable concentrations if the clinical Cmax of the agent was known.
Compounds. The drugs and investigational agents: pidnarulex (CX-5461; NSC782164), APTO-253 (NSC789042), BRACO-19 (NSC847499), peposertib (NSC802822), ceralasertib (NSC780249), elimusertib (NSC800525), camonsertib (NSC841442), AZD-1390 (NSC803789), olaparib (NSC753686), talazoparib (NSC767125), ART-558 (NSC835418), sotorasib (NSC818433), MRTX-1133 (NSC836407), SN-38 (NSC673596), topotecan (NSC609699), etoposide (NSC141540), doxorubicin (NSC123127), gemcitabine (NSC613327), 5-fluorouracil (NSC19893), paclitaxel (NSC125973), vemurafenib (NSC761431), panobinostat (NSC761190), R-306465 (JNJ-16241199; NSC773264), adavosertib (NSC754352), TP-3654 (NSC805149), carboplatin (NSC241240), KSQ-4279 (NSC840948), and staurosporine (NSC755774) were obtained from the National Cancer Institute (NCI) Developmental Therapeutics Program Chemical Repository (34). The FDA-approved anticancer drug set is available from the NCI Developmental Therapeutics Program. […] The stock solutions were prepared in dimethyl sulfoxide (DMSO, Sigma-Aldrich, St. Louis, MO, cat. D2650) at 800-fold the tested concentration and stored at -70 degrees C prior to their use. All drugs and investigational agents were tested over a range starting from a high concentration at or near the clinical Cmax and decreasing in half-log increments. If the clinical Cmax for an agent had not been determined, the highest concentration tested was 10 microM.
2.3 Cell Culture. All cells were maintained in an incubator at 37 degrees C and 5% CO2 with 95% humidity. The PDC lines were cultured according to standard operating procedures established by the NCI PDMR. All PDCs were thawed and cultured in Matrigel-coated flasks prepared with a working solution of 1X Ham's F-12 nutrient mix, without supplementation (Invitrogen, cat. 11765054), 100 U/mL penicillin-streptomycin (Invitrogen, cat. 15140122), and 2.5% Matrigel (Corning Inc., cat. 354248) for the first three passages. The 857933-349-R-J2-PDC line was cultured in 6C/Colon 1B media, which includes advanced DMEM/F-12 (Thermo Fisher Scientific, cat. 12634028), 10 mM HEPES (Thermo Fisher Scientific, cat. 15630080), 1X GlutaMAX supplement (Thermo Fisher Scientific, cat. 35050061), 0.1 mg/mL primocin (InvivoGen, cat. ant-pm-2), 10% defined fetal bovine serum, heat inactivated (HyClone Laboratories Inc., cat. SH30070.03HI), 50% L-WRN conditioned media (ATCC, cat. CRL-3276), 1.25 mM N-Acetyl-L-cysteine (Sigma-Aldrich, cat. A9165), 10 mM nicotinamide (Sigma-Aldrich, cat. N0636), 1X B-27 supplement (Thermo Fisher Scientific, cat. 17504044), 1X N-2 supplement (Thermo Fisher Scientific, cat. 17502048), 10 microM Y-27632 dihydrochloride (Tocris Bioscience, cat. 1254), and 50 ng/mL human EGF recombinant protein (Thermo Fisher Scientific, cat. PHG0311). The 485176-168-R4-J1-PDC line was cultured in Panc media, which includes all 6C/Colon 1B media components plus 100 ng/mL human FGF-10 (Thermo Fisher Scientific, cat. 100-26), 500 nM SB-431542 (Selleckchem, cat. S1067), and gastrin (Tocris, cat. 3006).
[…]

[1] = second compound 0.0316 µM, first compound 0.0316 µM
[2] = second compound 0.0316 µM, first compound 0.316 µM
[3] = second compound 0.1 µM, first compound 0.0316 µM
[4] = second compound 0.1 µM, first compound 0.316 µM
[5] = second compound 0.316 µM, first compound 0.0316 µM
[6] = second compound 0.316 µM, first compound 0.316 µM
[7] = second compound 1 µM, first compound 0.0316 µM
[8] = second compound 1 µM, first compound 0.316 µM
[9] = second compound 3.16 µM, first compound 0.0316 µM
[10] = second compound 3.16 µM, first compound 0.316 µM
[11] = second compound 10 µM, first compound 0.0316 µM
[12] = second compound 10 µM, first compound 0.316 µM
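Also: spheroids exposed to the agents for 7 days before readout.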
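For viability, T/C in this document: percent of luminescence signal in DMSO vehicle wells taken as 100% viability.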

Q: `CC1COCCN1c1cc(C2(S(C)(=N)=O)CC2)nc(-c2ccnc3[nH]ccc23)n1` (centres undefined) + Cc1cnc(CNC(=O)c2c(=O)c3ccc(N4CCCN(C)CC4)nc3n3c2sc2ccccc23)cn1 was tested. Which pIC50 (second compound 0.0316 µM) did it give?
A: < 5.00

Q: And the pIC50 (second compound 0.1 µM)?
A: < 5.00

Q: What about the pIC50 (second compound 0.316 µM) of the same molecule?
A: < 5.00

Q: And the pIC50 (second compound 1 µM)?
A: < 5.00

Q: And the pIC50 (second compound 3.16 µM)?
A: < 5.00

Q: And the pIC50 (second compound 10 µM)?
A: < 5.00

Q: And the viability, T/C [1]?
A: 99.5%

Q: And the viability, T/C (second compound 0.0316 µM, first compound 0.1 µM)?
A: 86.3%

Q: What about the viability, T/C [2] of the same molecule?
A: 93.8%

Q: What about the viability, T/C (second compound 0.0316 µM, first compound 1 µM) of the same molecule?
A: 89.6%

Q: And the viability, T/C (second compound 0.0316 µM, first compound 3.16 µM)?
A: 90.9%

Q: And the viability, T/C (second compound 0.0316 µM, first compound 10 µM)?
A: 69.9%

Q: And the viability, T/C [3]?
A: 100%

Q: And the viability, T/C (second compound 0.1 µM, first compound 0.1 µM)?
A: 94.4%

Q: And the viability, T/C [4]?
A: 86.4%

Q: And the viability, T/C (second compound 0.1 µM, first compound 1 µM)?
A: 85.5%

Q: And the viability, T/C (second compound 0.1 µM, first compound 3.16 µM)?
A: 86.5%

Q: And the viability, T/C (second compound 0.1 µM, first compound 10 µM)?
A: 61.8%

Q: And the viability, T/C [5]?
A: 80.3%

Q: What about the viability, T/C (second compound 0.316 µM, first compound 0.1 µM) of the same molecule?
A: 78.3%

Q: And the viability, T/C [6]?
A: 80.8%

Q: What about the viability, T/C (second compound 0.316 µM, first compound 1 µM) of the same molecule?
A: 81.5%

Q: And the viability, T/C (second compound 0.316 µM, first compound 3.16 µM)?
A: 79.1%

Q: What about the viability, T/C (second compound 0.316 µM, first compound 10 µM) of the same molecule?
A: 60.9%

Q: And the viability, T/C [7]?
A: 76.1%

Q: What about the viability, T/C (second compound 1 µM, first compound 0.1 µM) of the same molecule?
A: 65.2%

Q: And the viability, T/C [8]?
A: 78.2%

Q: And the viability, T/C (second compound 1 µM, first compound 1 µM)?
A: 75.5%

Q: And the viability, T/C (second compound 1 µM, first compound 3.16 µM)?
A: 75.8%

Q: And the viability, T/C (second compound 1 µM, first compound 10 µM)?
A: 65.6%

Q: What about the viability, T/C [9] of the same molecule?
A: 62%

Q: What about the viability, T/C (second compound 3.16 µM, first compound 0.1 µM) of the same molecule?
A: 74.5%

Q: What about the viability, T/C [10] of the same molecule?
A: 66.4%

Q: What about the viability, T/C (second compound 3.16 µM, first compound 1 µM) of the same molecule?
A: 71.3%

Q: What about the viability, T/C (second compound 3.16 µM, first compound 3.16 µM) of the same molecule?
A: 75.3%

Q: What about the viability, T/C (second compound 3.16 µM, first compound 10 µM) of the same molecule?
A: 55.7%

Q: And the viability, T/C [11]?
A: 61.3%

Q: What about the viability, T/C (second compound 10 µM, first compound 0.1 µM) of the same molecule?
A: 59.1%

Q: What about the viability, T/C [12] of the same molecule?
A: 66.8%

Q: What about the viability, T/C (second compound 10 µM, first compound 1 µM) of the same molecule?
A: 60.8%

Q: And the viability, T/C (second compound 10 µM, first compound 3.16 µM)?
A: 61.6%

Q: What about the viability, T/C (second compound 10 µM, first compound 10 µM) of the same molecule?
A: 49.2%

Q: How did the pIC50 (second compound 0.0316 µM) turn out when `CCc1c2c(nc3ccc(O)cc13)-c1cc3c(c(=O)n1C2)COC(=O)[C@]3(O)CC` + Cc1cnc(CNC(=O)c2c(=O)c3ccc(N4CCCN(C)CC4)nc3n3c2sc2ccccc23)cn1 was run?
A: 6.80

Q: What about the pIC50 (second compound 0.1 µM) of the same molecule?
A: 6.91

Q: What about the pIC50 (second compound 0.316 µM) of the same molecule?
A: 6.90

Q: What about the pIC50 (second compound 1 µM) of the same molecule?
A: 7.03

Q: And the pIC50 (second compound 3.16 µM)?
A: 7.21

Q: What about the pIC50 (second compound 10 µM) of the same molecule?
A: 7.17

Q: And the viability, T/C (second compound 0.0316 µM, first compound 0.000999 µM)?
A: 99.4%

Q: And the viability, T/C (second compound 0.0316 µM, first compound 0.00316 µM)?
A: 83.5%

Q: What about the viability, T/C (second compound 0.0316 µM, first compound 0.00999 µM) of the same molecule?
A: 78.8%

Q: And the viability, T/C [1]?
A: 66.4%

Q: What about the viability, T/C (second compound 0.0316 µM, first compound 0.0999 µM) of the same molecule?
A: 53.7%

Q: And the viability, T/C [2]?
A: 43.1%

Q: And the viability, T/C (second compound 0.1 µM, first compound 0.000999 µM)?
A: 88.7%

Q: What about the viability, T/C (second compound 0.1 µM, first compound 0.00316 µM) of the same molecule?
A: 79.5%

Q: What about the viability, T/C (second compound 0.1 µM, first compound 0.00999 µM) of the same molecule?
A: 76.2%

Q: What about the viability, T/C [3] of the same molecule?
A: 68.1%

Q: And the viability, T/C (second compound 0.1 µM, first compound 0.0999 µM)?
A: 53.4%

Q: And the viability, T/C [4]?
A: 34%

Q: What about the viability, T/C (second compound 0.316 µM, first compound 0.000999 µM) of the same molecule?
A: 77.3%

Q: And the viability, T/C (second compound 0.316 µM, first compound 0.00316 µM)?
A: 70.1%

Q: And the viability, T/C (second compound 0.316 µM, first compound 0.00999 µM)?
A: 72.3%

Q: What about the viability, T/C [5] of the same molecule?
A: 65%

Q: And the viability, T/C (second compound 0.316 µM, first compound 0.0999 µM)?
A: 55%

Q: What about the viability, T/C [6] of the same molecule?
A: 31.8%

Q: And the viability, T/C (second compound 1 µM, first compound 0.000999 µM)?
A: 67.3%

Q: What about the viability, T/C (second compound 1 µM, first compound 0.00316 µM) of the same molecule?
A: 69.9%

Q: What about the viability, T/C (second compound 1 µM, first compound 0.00999 µM) of the same molecule?
A: 60.6%

Q: What about the viability, T/C [7] of the same molecule?
A: 59.4%

Q: What about the viability, T/C (second compound 1 µM, first compound 0.0999 µM) of the same molecule?
A: 50.1%

Q: What about the viability, T/C [8] of the same molecule?
A: 33.8%

Q: And the viability, T/C (second compound 3.16 µM, first compound 0.000999 µM)?
A: 65.7%

Q: And the viability, T/C (second compound 3.16 µM, first compound 0.00316 µM)?
A: 74.8%

Q: And the viability, T/C (second compound 3.16 µM, first compound 0.00999 µM)?
A: 56.9%

Q: And the viability, T/C [9]?
A: 55.7%

Q: What about the viability, T/C (second compound 3.16 µM, first compound 0.0999 µM) of the same molecule?
A: 47.6%

Q: And the viability, T/C [10]?
A: 24.6%

Q: And the viability, T/C (second compound 10 µM, first compound 0.000999 µM)?
A: 60.6%

Q: What about the viability, T/C (second compound 10 µM, first compound 0.00316 µM) of the same molecule?
A: 60.4%

Q: And the viability, T/C (second compound 10 µM, first compound 0.00999 µM)?
A: 58.3%

Q: And the viability, T/C [11]?
A: 52.8%

Q: What about the viability, T/C (second compound 10 µM, first compound 0.0999 µM) of the same molecule?
A: 48.8%

Q: And the viability, T/C [12]?
A: 20.1%

— PubChem BioAssay AID2060510 (Molecular Pharmacology Branch, DTP, NCI, 2025)
